Structures are written as SMILES.

Assay [1] concerns the target 5-hydroxytryptamine receptor 2B (Homo sapiens, UniProt P41595).
The target of assay [2] is 5-hydroxytryptamine receptor 2B (Rattus norvegicus, UniProt P30994).
Chain of 5-hydroxytryptamine receptor 2B (Rattus norvegicus, UniProt P30994) (P30994 whole entry): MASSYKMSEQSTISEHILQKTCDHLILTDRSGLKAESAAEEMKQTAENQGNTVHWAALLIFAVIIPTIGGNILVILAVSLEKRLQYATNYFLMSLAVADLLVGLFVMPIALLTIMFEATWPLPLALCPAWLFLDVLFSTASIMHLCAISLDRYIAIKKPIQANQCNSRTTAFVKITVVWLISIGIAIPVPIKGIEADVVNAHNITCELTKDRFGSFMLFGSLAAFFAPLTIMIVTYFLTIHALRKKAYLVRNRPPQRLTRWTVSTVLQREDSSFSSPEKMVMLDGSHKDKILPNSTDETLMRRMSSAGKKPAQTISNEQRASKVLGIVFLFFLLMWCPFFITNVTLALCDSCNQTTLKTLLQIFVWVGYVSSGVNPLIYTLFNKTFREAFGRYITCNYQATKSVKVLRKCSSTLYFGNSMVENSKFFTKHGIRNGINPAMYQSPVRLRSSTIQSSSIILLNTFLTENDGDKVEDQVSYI

Chain of 5-hydroxytryptamine receptor 2B (Homo sapiens, UniProt P41595) (P41595 whole entry): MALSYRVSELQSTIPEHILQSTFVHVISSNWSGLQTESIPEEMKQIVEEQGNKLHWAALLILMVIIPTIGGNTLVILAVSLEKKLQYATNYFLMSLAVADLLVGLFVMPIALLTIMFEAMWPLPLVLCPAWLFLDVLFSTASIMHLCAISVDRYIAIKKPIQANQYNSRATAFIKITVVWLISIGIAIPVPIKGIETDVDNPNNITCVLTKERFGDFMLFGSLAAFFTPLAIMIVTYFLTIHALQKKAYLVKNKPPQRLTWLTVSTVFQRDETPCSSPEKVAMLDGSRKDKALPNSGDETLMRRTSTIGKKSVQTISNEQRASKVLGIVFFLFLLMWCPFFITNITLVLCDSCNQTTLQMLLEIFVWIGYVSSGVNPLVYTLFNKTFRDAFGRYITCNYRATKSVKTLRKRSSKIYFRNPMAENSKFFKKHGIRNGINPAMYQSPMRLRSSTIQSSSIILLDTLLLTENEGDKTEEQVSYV

As for `Cn1cc(CCN)c2cc(O)ccc21` [5-HT,omega-N-Me], affinity in assay [1] was put at a Ki of 11.9 nM.
With `COc1cc(CC(C)N)c(OC)cc1I` (centres undefined) [[125I]2,5-dimethoxy-4-iodoamphetamine], the Ki was 19.9 nM in assay [1] and 26.6 nM in assay [2].
In the case of `O=C(CCCN1CCC2(CC1)C(=O)NCN2c1ccccc1)c1ccc(F)cc1` [8-[4-(4-fluorophenyl)-4-oxidanylidene-butyl]-1-phenyl-1,3,8-triazaspiro[4.5]decan-4-one], the Ki in assay [1] came out at 697 nM.
